From US7517657B2, “Peptides for detecting anti-double stranded DNA antibody and uses thereof” (Albert Einstein College of Medicine of Yeshiva University, priority 1995, dated 2009)

What was measured:
R4A binding to dsDNA = experiment: Peptide inhibition of R4A binding to dsDNA by ELISA; design: species or system mouse; settings: fluid phase inhibitor, FIG. 3, FIG. 4
Protocol: FIG. 3 depicts peptide inhibition of R4A (1 μg/ml) binding to calf thymus double stranded DNA by Enzyme Linked ImmunoSorbent Assay.
FIG. 4 sets forth a graph representing DWEYS (L and D peptides) (SEQ ID NO:2) inhibition of R4A binding to dsDNA. IMMULON® II plates were coated overnight with 100 μg/ml salmon sperm dsDNA. R4A at a final concentration of 5 μg/ml was incubated at varying concentrations of L or D DWEYS (SEQ ID NO:2) and transferred to the plate precoated with dsDNA. After a 2-hr incubation at 37° C., the plates were washed, and alkaline phosphotase-linked goat anti-mouse IgG2b antibody was added for 1 hour at 37° C. OD after addition of substrate was monitored at 405 nm.

[1] = system: production of anti-dsDNA antibodies; experiment: Immunization of nonautoimmune BALB/c mice with peptide in complete Freund's adjuvant; assay type: in vivo; settings: unpublished work
Text: It is also noteworthy that both the R4A and 52b3 peptides have aromatic residues, tryptophan and tyrosine. […] This apparent difference in specificity is consistent with the finding that they bind distinct peptides. It is also noteworthy that both the R4A and 52b3 consensus motifs have aromatic residues, tryptophan and tyrosine. It is tempting to speculate that the negatively charged aspartate and glutamate residues are analogous to phosphate groups, the aromatic tryptophan residues are analogous to the pentose sugar backbone, and the tyrosine and serine residues are analogous to the hydroxyl groups attached to the pentose moiety in the DNA molecule, thus explaining why these peptides are mimics of DNA. One potential utility of identifying peptide mimotopes for dsDNA is to try to determine if the actual eliciting antigen for production of these antibodies or target antigen for deposition in kidneys might be a protein molecule. […] It is interesting to speculate whether the murine homolog of chicken collagen XIV also has a splice variant containing the same or highly homologous peptide sequence that would be recognized by the R4A antibody.

Asp-Trp-Glu-Tyr-Ser (DWEYS; printed: Asp-Trp-Glu-Tyr-Ser)
Inhibition of R4A binding to dsDNA (R4A binding to dsDNA): inhibited dsDNA binding by the appropriate antibody only
Production of anti-dsDNA antibodies after immunization [1]: leads to production of anti-dsDNA antibodies
